Measurements as given in paper PMC11758394, “VCP downstream metabolite glycerol-3-phosphate (G3P) inhibits CD8^+T cells function in the HCC microenvironment” (Signal Transduction and Targeted Therapy, 2025).

How the values were obtained:
region LCK(240-509AAs) = molecular target: T1, region LCK(240-509AAs) (Homo sapiens, UniProt P06239); assay: SPR (Biacore 8K, protein on CM5 chip); also ITC; conditions: PBS; value not in text; binding of this fragment inferred because it contains 330-509
T1 construct: purified fragment 240-509 (kinase domain)

LCK = molecular target: T2, LCK (Homo sapiens, UniProt P06239); assay: SPR (Biacore 8K, protein on CM5 chip); also ITC; assay type: binding; conditions: PBS; value not in text
T2 construct: purified full-length LCK
T2 sequence (P06239 whole entry): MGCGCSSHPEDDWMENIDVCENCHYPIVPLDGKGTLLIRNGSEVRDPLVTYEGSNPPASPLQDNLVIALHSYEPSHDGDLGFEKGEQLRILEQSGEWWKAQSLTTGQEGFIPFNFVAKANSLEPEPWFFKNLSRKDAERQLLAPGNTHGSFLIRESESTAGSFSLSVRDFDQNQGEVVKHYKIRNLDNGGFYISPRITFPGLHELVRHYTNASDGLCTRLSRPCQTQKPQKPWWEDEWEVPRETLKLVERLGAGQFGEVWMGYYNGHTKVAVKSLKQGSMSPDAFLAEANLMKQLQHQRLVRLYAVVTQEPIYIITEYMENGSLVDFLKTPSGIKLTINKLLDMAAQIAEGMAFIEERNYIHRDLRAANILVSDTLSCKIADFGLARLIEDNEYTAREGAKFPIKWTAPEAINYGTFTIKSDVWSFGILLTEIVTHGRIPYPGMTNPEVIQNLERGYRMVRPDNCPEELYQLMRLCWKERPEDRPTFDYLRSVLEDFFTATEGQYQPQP

T1 sequence (P06239 240-509): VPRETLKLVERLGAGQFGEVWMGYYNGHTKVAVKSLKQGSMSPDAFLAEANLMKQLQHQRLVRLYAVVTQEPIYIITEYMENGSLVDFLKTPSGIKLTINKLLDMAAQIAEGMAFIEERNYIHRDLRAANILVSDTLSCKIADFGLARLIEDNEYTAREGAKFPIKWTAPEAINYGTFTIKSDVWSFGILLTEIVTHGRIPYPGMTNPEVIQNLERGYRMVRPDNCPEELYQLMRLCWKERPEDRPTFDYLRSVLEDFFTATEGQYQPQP

With O=P(O)(O)OC[C@H](O)CO [G3P] the Kd (region LCK(240-509AAs)) was “BIAcore measurement of the interaction between G3P and the purified region” and the Kd (LCK) was “we demonstrated the interaction of LCK and G3P using surface plasmon resonance (BIAcore) experiment”.
